According to US20110213000A1, “N-(2-THIAZOLYL)-AMIDE DERIVATIVES FOR THE TREATMENT OF OBESITY, DIABETES AND CARDIOVASCULAR DISEASES” (ZELTIA, S.A., priority 2007, published 2011):

System: adiponectin promoter
Experiment: Luciferase reporter screening of promoter transcriptional activity in stable C2C12 cell lines
Assay type: cell-based, mouse
Conditions: for activation ratio: C2C12 stable line, luciferase, vs vehicle; for concentration at which the greatest transactivation was achieved: dose-response curve of the commercial activator on the target promoter
Excerpt: The following protocol has been followed for the purpose of analyzing the potential therapeutic activity against obesity, type 2 diabetes mellitus and atherosclerosis (ODA metabolic diseases) of the compounds 1-5: • generating cell lines which have stably integrated human promoters of key genes in the development of ODA diseases; • amplifying the human promoter sequence of the target genes starting from commercial human genomic DNA; • cloning the promoter into a suitable vector which allows knowing the transcriptional activity of the promoter sequence, using the luciferase gene as a reporter gene; • generating stable cell lines for each of the promoters cloned into the reporter vectors; • carrying out the screening test with the compounds of the invention on the stable cell lines; • suitably validating the effect obtained with a certain compound which can modify the transcriptional activity of the promoter.
The selected cell line is C2C12, corresponding to myoblasts from mouse muscle tissue.
The luciferase activity is measured according to the following protocol: • a) 50000 and […] cells/well (and in duplicate) are seeded in a P24 plate. • b) After approximately 24 hours, the medium is removed from the cells and each well is washed with PBS 1× (because DMEM interferes in the measurement of the activity of the reporter gene) • c) 100 μl of luciferase developing reagent are added in each cell (Bright-Glo™ Luciferase Assay system—Promega). This reagent carries the reporter gene substrate and luminescence is generated as the product of the enzymatic reaction. The cells which have acquired the reporter gene, and therefore the target promoter, will be luminescent upon being in the presence of said substrate. To record the measurement of luciferase activity, the plate is shaken for 30 seconds right after adding the developing reagent and after 2 minutes, the volume is collected and transferred to a 96-well plate (P96), which can be read in an illuminometer. • d) The suitable luminescence program is selected, such that the reading lasts 5 seconds per well, and the arbitrary luminescence units are recorded for each obtained clone or, in other words, for each stable cell line.
Carrying out the screening test: The clones used in the screening are: C2C12 Adipo (adiponectin promoter), C2C12 UCP3 (UCP3 promoter), C2C12 AdR1 (adiponectin receptor 1 promoter) and C2C12 Nmu (neuromedin promoter).
Before any screening experiment, the suitable number of cells for carrying out such experiments must first be provided. To that end, 2 T75 are usually seeded (with approximately 1×10^6 cells in each bottle), such that after four days, the cells have reached confluence and are ready for the screening protocol detailed below to be carried out. • 1. Day 1: 30000 cells per well are seeded in white P96 plates; these plates allow amplifying the luminescence signal and improving the reading. The cells are grown in 100 μl of hygromycin-free medium. • 2. Day 2: 24 hours after the seeding, the cells are stimulated with compounds 1-5. […]
[drawing 16] • ? In the indicated positions, the baseline transcriptional activity of the promoters to be studied is recorded in the presence of the medium in which compounds 1-5 (vehicle) are dissolved. • ? In the indicated positions, the transcriptional activity of the promoters to be studied is recorded in the presence of a known commercial activator of the target promoter. […]

[1] = 0.5 μM, 48 hours after stimulation
[2] = 1 μM, 48 hours after stimulation
[3] = 10 μM, 48 hours after stimulation
[4] = 25 μM, 48 hours after stimulation
[5] = 5 μM, 48 hours after stimulation
[6] = 20 μM, 48 hours after stimulation

| SMILES | activation ratio (0.1 μM, 48 hours after stimulation) | activation ratio [1] | activation ratio [2] | activation ratio [3] | activation ratio [4] | activation ratio (50 μM, dose-response curve) | activation ratio (100 μM, dose-response curve) | activation ratio (400 μM, dose-response curve) | activation ratio [5] | activation ratio [6] | activation ratio (200 μM, dose-response curve) | concentration at which the greatest transactivation was achieved |
| --- | --- | --- | --- | --- | --- | --- | --- | --- | --- | --- | --- | --- |
| O=C(Nc1nccs1)c1n[nH]c2ccccc12 [Compound 1, thiazol-2-ylamide compound of 1H-indazole-3-carboxylic acid] | 1.28 | 3.66 | 4.59 | 5.52 | 3.58 | 2.29 | 0.71 | 0.12 | – | – | – | – |
| O=c1c(-c2ccc(O)cc2)coc2cc(O)cc(O)c12 [Genistein] | – | – | 1.47 | 3.59 | – | 1.97 | 1.75 | – | 2.25 | 3.05 | 1.59 | 20 µM |
| O=C(Nc1nccs1)c1ccccn1 [Compound 3, pyridin-2-carboxylic acid thiazol-2-yl-amide] | – | 1.40 | 1.71 | 3.82 | 3.73 | 3.20 | 1.61 | – | 3.23 | – | 0.75 | – |
| O=c1c(-c2ccc(O)cc2)coc2cc(O)ccc12 [Daidzein] | – | – | 1.68 | 3.76 | – | 4.05 | 3.71 | – | 3.03 | 4.04 | – | 20 µM |
| CN(CCOc1ccc(CC2SC(=O)NC2=O)cc1)c1ccccn1 (centres unmarked) [Rosiglitazone] | – | – | – | – | – | – | – | – | – | – | – | 20 µM |
